Tests used:
Format in all cases: cell-based
BEL7404 = assay: CellTiter-Glo luminescent cell viability assay; settings: Homo sapiens, BEL-7404, 120 h incubation, read-out: Anti-proliferative activity IC50 BEL7404
Text: (§1) The in vitro antitumor activity of all compounds was screened against six HCC cell lines by CellTiter-Glo luminescent cell viability assay as described earlier. […] After a comprehensive assessment of PDGFR inhibition, cellular activity against HCC cells as well as potential druggability, E5 was chosen to investigate its kinase profiling, antitumor activity and molecular mechanism in the following study. […]
(§2) authenticated by using short tandem repeat (STR) matching analysis. No mycoplasma contamination was detected.
(§3) CellTiter-Glo luminescent cell viability assay
(§4) For experiments hepatocellular carcinoma cells were seeded at 4000 cells per well in 96-well plates. After overnight incubation, solution of compounds in DMSO at various concentrations were added to the cells and further incubated for 120 h. Cell viability was measured with the CellTiter-Glo Luminescent Cell Viability Assay (Promega) according to the manufacturer’s instructions. Luminescence was measured using an EnVision Multilabel Plate Reader (Perkin-Elmer). The cytotoxicity of the compounds was expressed as the percent age of luminescence relative to that of untreated cells . The concentration of compound producing 50% of cell proliferation (IC50) was calculated by nonlinear regression analysis of the response-concentration (log) curve, using the Graph-Pad Prism program package (Graph Pad Software; San Diego, CA). Results are expressed as the means of two […] experiments

Hep3B = assay: CellTiter-Glo luminescent cell viability assay; settings: Homo sapiens, Hep3B, 120 h incubation, read-out: Anti-proliferative activity IC50 Hep3B
Text: as §1, §2, §3, §4

MHCC97-L = assay: CellTiter-Glo luminescent cell viability assay; settings: MHCC97L, 120 h incubation, read-out: Anti-proliferative activity IC50 MHCC97-L
Text: as §1, §2, §3, §4

QGY-7703 = assay: CellTiter-Glo luminescent cell viability assay; settings: Homo sapiens, QGY-7703, 120 h incubation, read-out: Anti-proliferative activity IC50 QGY-7703
Text: as §1, §2, §3, §4

SMMC-7721 = assay: CellTiter-Glo luminescent cell viability assay; settings: Homo sapiens, SMMC-7721, 120 h incubation, read-out: Anti-proliferative activity IC50 SMMC-7721
Text: as §1, §2, §3, §4

SNU368 = assay: CellTiter-Glo luminescent cell viability assay; settings: 120 h incubation, read-out: Anti-proliferative activity IC50 SNU368
Text: as §1, §2, §3, §4

Bel7404 cells [1] = assay: MTT cell viability assay; settings: Homo sapiens
Description: (§5) To reconfirm the biological activity, we chose the most sensitive cell line Bel7404 from cellular assay and the widely used and the most characterized cell line HepG2 to examine the effects of E5 on cell proliferation by MTT assay. […] Given that cell cycle arrest plays a significant role in inhibiting cancer cell growth, we subsequently examined the effects of E5 on cell cycle distribution of Bel7404 and HepG2 cells.
(§6) Cell viability was measured by methyl thiazolyl tetrazolium (MTT) assay. Cells were seeded in 96-well plate at a density of 1 × 10^4 cells/well. After overnight incubation, solution of E5 in DMSO with incremental concentrations (0–30 μM) were added to the cells and further incubated for 3 days. During this period, three wells were selected from each group of cells every day for the MTT (50 μg/well) assay. After the cells had been incubated at 37 °C for 4 h, the reaction was stopped by adding 150 μL/well of DMSO, and incubating for 10 min. The absorbance was measured at a wavelength of 490 nm by a Microplate Reader (BioTek, USA).

HepG2 cells [2] = assay: MTT cell viability assay; settings: Homo sapiens
Description: as §5, §6

Bel7404 cells [3] = assay: Cell cycle distribution by flow cytometry (PI); settings: 24 h treatment
Description: (§7) Cells were incubated with E5 for 24 h, after which cells were washed, stained and subjected to flow cytometry analysis. The cell cycle was analyzed by staining with propidium iodide (PI), and the extent of cell death/apoptosis was evaluated by double staining with annexin V-FITC and PI. The fluorescence was measured with a FACScan flow cytometer (Becton Dickinson, USA).

HepG2 cells [4] = assay: Cell cycle distribution by flow cytometry (PI); settings: 24 h treatment
Description: as §7

Bel7404 cells [5] = assay: Apoptosis by Annexin V/PI flow cytometry; settings: 24 h, Annexin V/PI double staining
Description: (§8) We next explored the apoptosis-inducing ability of E5 in HCC cells. Bel7404 and HepG2 cells were treated with E5 for 24 h and stained with the fluorescent DNA-binding dye, Hoechst 33258. The cells were brightly stained in a dose-dependent manner, showing a typical morphological sign of apoptosis (Fig. 5A). […] Furthermore, E5 induced a specific cleavage of PARP and a decrease of pro-form of caspase-3, caspase-7 and caspase-9 (Fig. 5C). […] In addition, the pan-caspase inhibitor Z-VAD-FMK partially rescued the viability of HCC cells reduced by E5, implying that E5 might also induce non-apoptotic form of cell death (Fig. 5D).
as §7

HepG2 cells [6] = assay: Apoptosis by Annexin V/PI flow cytometry; settings: 24 h, Annexin V/PI double staining
Description: as §8, §7

Bel7404 cells [7] = assay: Autophagy: LC3-I to LC3-II conversion, Western blot
Text: (§9) To investigate whether E5 triggers autophagic cell death in HCC cells, several characteristic events of autophagy were examined using different techniques. First, E5 stimulated LC3 puncta formation in HCC cells transfected with adenovirus expressing GFP-LC3 fusion protein as detected by fluorescence microscopy (Fig. 6A). […] Third, the effects of E5 on autophagy flux was examined by co-treatment of E5 with chloroquine (CQ), an inhibitor that prevents the formation of autolysosomes by inhibiting autophagosome-lysosome fusion and […] degradation. […] Fourth, E5 increased the expression of Atg5, which is essential for the elongation of autophagosomes (Fig. 6B), and the cell viability by E5 treatment was increased in HCC cells by knockdown of Atg5 (Fig. 6E). Finally, treatment with 3-methyladenine (3-MA), an autophagy inhibitor, partially reversed E5-induced cell death in HCC cells (Fig. 6F).
(§10) After treatment with E5 for 24 h, cells were lysed in RIPA cell lysis buffer. Equal amount of protein (30–40 μg) was separated on a 12% or 15% SDS-PAGE and transferred electrophoretically onto a 0.45 μm PVDF membrane. Then, the membrane was blocked for 2 h at room temperature with 5% non-fat dried milk in TBS buffer and incubated with appropriate antibodies at 1:1000 (overnight, 4 °C). […]

HepG2 cells [8] = assay: as above
Text: as §9, §10

Cc1ccc(NC(=O)c2ccc(CN3CCN(C)CC3)cc2)cc1Oc1nccc(-c2cc3ccccc3o2)n1 [E5, N-(3-((4-(benzofuran-2-yl)pyrimidin-2-yl)oxy)-4-methylphenyl)-4-((4-methylpiperazin-1-yl)methyl)benzamide]
IC50 (BEL7404): 0.8 µM
IC50 (Hep3B): 2.6 µM
IC50 (MHCC97-L): 10 µM
IC50 (QGY-7703): 15.1 µM
IC50 (SMMC-7721): 1 µM
IC50 (SNU368): 8.9 µM
IC50 (Bel7404 cells [1]; BEL-7404, 24 h): 18.2 ± 2.38 µM
IC50 (Bel7404 cells [1]; BEL-7404, 48 h): 9.68 ± 1.46 µM
IC50 (Bel7404 cells [1]; BEL-7404, 72 h): 6.62 ± 0.15 µM
IC50 (HepG2 cells [2]; HepG2, 24 h, 24 h): 8.49 ± 0.82 µM
IC50 (HepG2 cells [2]; HepG2, 48 h, 48 h): 5.44 ± 0.23 µM
IC50 (HepG2 cells [2]; HepG2, 72 h, 72 h): 4.72 ± 0.96 µM
Effect on cell cycle distribution (Bel7404 cells [3]): elicited G2/M phase arrest in a dose-dependent manner
Effect on cell cycle distribution (HepG2 cells [4]): elicited G2/M phase arrest in a dose-dependent manner
Apoptosis induction (Bel7404 cells [5]): induced apoptosis in a dose-dependent manner
Apoptosis induction (HepG2 cells [6]): induced apoptosis in a dose-dependent manner
Conversion of LC3-I to LC3-II (Bel7404 cells [7]): induced the conversion of LC3-I to LC3-II in a dose- and time-dependent manner
Conversion of LC3-I to LC3-II (HepG2 cells [8]): induced the conversion of LC3-I to LC3-II in a dose- and time-dependent manner
